Tests used:
[1] = test system: rat limbic system; conditions: pretreatment of rats, systemic kainic acid seizure; cited from earlier work
[2] = test system: mechanical hyperalgesia of the affected hind paw; assay: Mechanical hyperalgesia (von Frey foot withdrawal) after L5 spinal nerve ligation; assay type: in vivo; conditions: SNL mice, PBN 150 mg/kg i.p. or 100 μg i.t.
Method: Inhibition of neuron death using one of the anti-oxidant agents described above is examined in a spinal injury model as described below. The oxidation inhibitor used is phenyl-N-tert-butylnitrone, a ROS scavenger. Peripheral nerve injury is induced by tightly ligating the L5 spinal nerve under isoflurane anesthesia (2% induction and 1.5% maintenance). Seven days after SNL, mice are randomly divided into treatment and control groups. Mice belonging to one treatment group are injected by one of two different routes with phenyl-N-tert-butylnitrone, PBN (Sigma, St. Louis, Mo.). Doses of PBN used are 150 mg/kg (i.p., 0.1 ml) or 100 μg (i.t., 5 μl), dissolved in saline at a concentration of 20 mg/ml. Mice in the control groups are treated with the same volume of saline. […]
Pain behavior is tested by assessing mechanical hyperalgesia of the affected hind paw. […] Mechanical hyperalgesia of the hind paw is measured by determining the frequency of foot withdrawals to 10 stimuli applied with a von Frey (vF) filament (Stoelting, Wood Dale, Ill.). […] Response rates are calculated as a percentage of the number of positive responses/10 stimuli.

[3] = test system: GABA neurons; assay: Whole-cell patch recording in lumbar spinal cord slices; assay type: cell-based, mouse; conditions: spinal cord slices of PBN treated mice

Row | Compound | activator protein-1- and NF-kB-binding activity [1] | increased protein nitration [1] | neuronal damage resulting from seizure activity in limbic structures [1] | spectrin proteolysis [1] | foot withdrawal to von Frey filament (pain behavior) [2] | action potential discharge (excitatory) pattern of surviving neurons [3] | excitability and firing activity of GABA neurons [3]
1 | COc1cccc(C=NCCN=Cc2cccc(OC)c2[O-])c1[O-].[Cl-].[Mn+3] [EUK-134] | reduction | reduction | reduction | reduction | – | – | –
2 | CC(C)(C)[N+]([O-])=Cc1ccccc1 [PBN, phenyl-N-tert-butylnitrone] | – | – | – | – | withdraw their foot less abruptly | superior action potential discharge (excitatory) pattern | restore excitability and prevent suppression of firing activity
